According to US8754227B2, “Metalloenzyme inhibitor compounds” (Viamet Pharmaceuticals, Inc., priority 2010, dated 2014):
In brackets after ≈: the same amount, converted by molar mass.

Legend:
C. albicans = assay: Minimum Inhibitory Concentration (MIC), CLSI M27-A2; type: cell-based; settings: Candida albicans; about 50% growth reduction; approximately 48 h at 35°C
Method: Compounds were assessed for their ability to inhibit the growth of common strains of fungus, C. albicans using a standardized procedure (CLSI M27-A2). Stock solutions of the test compounds and standards were prepared in DMSO at 1,600 μg/mL (C. albicans). Eleven, serial, one-half dilutions of compounds were prepared in 96-well plates in RPMI+MOPS. The assay concentration ranges were […] (C. albicans). Cell suspensions of C. albicans were prepared and added to each well at concentrations of approximately 3.7×10^3 colony-forming-units per milliliter (cfu/mL). All testing was in duplicate. The inoculated plates were incubated for approximately 48 h at 35±1° C. At the completion of incubation the wells of each plate were evaluated visually for the presence of fungal growth. […] For QC purposes C. krusei isolate ATCC 6258 (4.0×10^3 efu/mL) was included in the VOR assay.

CYP3A4 = CYP3A4 (Homo sapiens (Human), UniProt P08684); assay: Inhibition of liver cytochrome P450 enzymes, pooled human liver microsomes; type: in vitro ADME
Method: (§1) Solutions of each test compound were separately prepared at concentrations of 20000, 6000, 2000, 600, 200, and 60 μM by serial dilution with DMSO:MeCN (50:50 v/v). […] The mixed inhibitor solutions were then diluted 20-fold with DMSO:MeCN:deionized water (5:5:180 v/v/v) to concentrations of 300, 100, 30, 10, 3, 1, 0.3, and 0.1 μM. The percent of organic solvent attributable to the test compound or inhibitor mixture in the final reaction mixture was 2% v/v. Pooled human liver microsome suspension (20 mg/mL) was diluted with phosphate buffer to obtain a 5 mg/mL suspension. A solution of NADPH was prepared in phosphate buffer at a concentration of 5 mM. Separate stock solutions of each substrate were prepared in DMSO:MeCN (50:50 v/v), mixed, and diluted in phosphate buffer to obtain a single solution containing each substrate at five times its experimentally determined Km concentration. The percent of organic solvent attributable to substrate mixture in the final reaction mixture was 1% v/v. Substrate solution and microsome suspension were combined in a 1:1 volume ratio, mixed, and distributed to reaction wells of a PCR plate. Individual test compound or combined inhibitor solutions at each concentration were added to the wells and mixed by repetitive aspirate-dispense cycles. […] Reaction mixtures were allowed to equilibrate at 37° C. for approximately two minutes before adding NADPH solution to initiate reaction, followed by pipette mixing of reaction mixture. Ten minutes after addition of NADPH, the reaction mixtures were quenched with cold acetonitrile. […] A portion of the supernatant was analyzed by gradient reverse-phase HPLC with detection by electrospray ionization triple quadrupole mass spectrometry in the positive ion mode. Data was fitted to sigmoid dose-response curves and the inhibitory potency of each test compound was determined as its IC50 value.

CYP2C19 = CYP2C19 (Homo sapiens (Human), UniProt P33261); assay: as above; type: in vitro ADME
Method: as §1

CYP2C9 = CYP2C9 (Homo sapiens (Human), UniProt P11712); assay: as above; type: in vitro ADME
Method: as §1

CYP2C19, sequence (P33261 whole entry): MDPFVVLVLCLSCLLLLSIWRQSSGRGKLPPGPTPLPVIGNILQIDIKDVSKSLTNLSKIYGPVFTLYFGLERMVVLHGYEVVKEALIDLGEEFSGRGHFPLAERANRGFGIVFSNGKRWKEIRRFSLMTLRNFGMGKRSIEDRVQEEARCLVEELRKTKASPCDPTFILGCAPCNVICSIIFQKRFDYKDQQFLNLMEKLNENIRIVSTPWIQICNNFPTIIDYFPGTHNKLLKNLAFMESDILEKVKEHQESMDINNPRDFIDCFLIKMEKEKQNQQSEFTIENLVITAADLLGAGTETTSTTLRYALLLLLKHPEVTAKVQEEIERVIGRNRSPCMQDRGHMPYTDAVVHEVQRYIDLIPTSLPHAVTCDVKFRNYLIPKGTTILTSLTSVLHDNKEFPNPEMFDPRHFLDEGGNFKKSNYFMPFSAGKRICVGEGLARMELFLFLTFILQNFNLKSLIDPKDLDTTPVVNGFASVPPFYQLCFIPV
CYP2C9, sequence (P11712 whole entry): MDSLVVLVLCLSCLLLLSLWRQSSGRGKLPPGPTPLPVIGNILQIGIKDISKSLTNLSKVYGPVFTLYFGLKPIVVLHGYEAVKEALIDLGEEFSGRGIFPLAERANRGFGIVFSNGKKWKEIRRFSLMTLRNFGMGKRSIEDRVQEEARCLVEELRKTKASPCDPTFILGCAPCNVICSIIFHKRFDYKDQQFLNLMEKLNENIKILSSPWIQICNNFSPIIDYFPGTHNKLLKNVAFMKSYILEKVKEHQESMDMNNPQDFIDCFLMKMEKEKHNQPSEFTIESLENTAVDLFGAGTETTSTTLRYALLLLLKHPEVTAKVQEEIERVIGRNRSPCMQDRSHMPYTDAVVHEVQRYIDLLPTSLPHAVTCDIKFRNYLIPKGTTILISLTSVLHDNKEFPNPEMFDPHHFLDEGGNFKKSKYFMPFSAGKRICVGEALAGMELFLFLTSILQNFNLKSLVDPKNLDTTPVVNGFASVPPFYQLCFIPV
CYP3A4, sequence (P08684 whole entry): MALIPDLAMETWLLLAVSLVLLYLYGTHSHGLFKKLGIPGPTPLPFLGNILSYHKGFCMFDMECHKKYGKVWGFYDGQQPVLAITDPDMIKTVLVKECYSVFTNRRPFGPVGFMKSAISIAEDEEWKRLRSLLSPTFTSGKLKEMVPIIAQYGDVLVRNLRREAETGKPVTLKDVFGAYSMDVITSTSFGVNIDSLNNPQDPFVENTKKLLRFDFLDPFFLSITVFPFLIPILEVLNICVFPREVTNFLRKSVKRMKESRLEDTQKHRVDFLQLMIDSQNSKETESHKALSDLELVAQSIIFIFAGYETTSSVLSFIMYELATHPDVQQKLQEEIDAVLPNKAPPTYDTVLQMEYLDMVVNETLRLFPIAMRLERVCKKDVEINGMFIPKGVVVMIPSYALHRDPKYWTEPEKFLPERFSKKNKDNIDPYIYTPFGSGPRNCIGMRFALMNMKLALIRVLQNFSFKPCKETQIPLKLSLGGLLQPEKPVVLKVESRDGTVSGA

Row | Compound | MIC (C. albicans) | IC50 (CYP3A4) | IC50 (CYP2C19) | IC50 (CYP2C9)
1 | OC(Cn1cncn1)(c1ccc(F)cc1F)C(F)(F)c1ccc(-c2ccc(F)cc2)cn1 (stereo not drawn) [Example 16, 2-(2,4-Difluorophenyl)-1,1-difluoro-1-(5-(4-fluorophenyl)pyridin-2-yl)-3-(1H-1,2,4-triazol-1-yl)propan-2-ol] | 2 ng/mL (≈ 4.48 nM) |  |  | 
2 | OC(Cn1cncn1)(c1ccc(F)cc1F)C(F)(F)c1ccc(-c2ccc(OCC(F)(F)F)cc2)cn1 (stereo not drawn) [Example 17, 2-(2,4-difluorophenyl)-1,1-difluoro-3-(1H-1,2,4-triazol-1-yl)-1-(5-(4-(2,2,2-trifluoroethoxy)phenyl)pyridin-2-yl)propan-2-ol] | ≤ 1 ng/mL |  |  | 
3 | OC(Cn1cncn1)(c1ccc(F)cc1F)C(F)(F)c1ccc(-c2ccc(OC(F)(F)F)cc2)cn1 [Example 18, 2-(2,4-Difluorophenyl)-1,1-difluoro-3-(1H-1,2,4-triazol-1-yl)-L-(5-(4-(trifluoromethoxy)phenyl)pyridin-2-yl)propan-2-ol] | ≤ 1 ng/mL | 3.8 µM | 11 µM | 3.1 µM
